# Data reported in patent publication US10076505B2, “Inhalation formulations of Treprostinil” (priority 2003, dated 2018).
# Assays:
# rat = details: orally, 1 mg/kg, cited from earlier work
# [1] = in vivo; cited from earlier work
# sheep [2] = test: Prolonged U44069 intravenous infusion, pulmonary vascular resistance and hemodynamics (Example II); type: in vivo
# Excerpt: Sheep were used as the animal model of choice for these experiments for a number of reasons. First is the docile nature of sheep. They will stand quietly in metabolic cages without having to utilize tranquilizing drugs, which have the potential to complicate experimental results. Second, sheep are large enough to allow direct measurement of CO, PPA, PLA, PCV, and PSYS. Sheep are also large enough to allow direct aerosolization of substances into the lung via trachoestomy thereby preventing swallowing of drugs and thus eliminating a possible secondary route of administration of UT-15. Third, sheep can tolerate a great amount of instrumentation with little or no discomfort. Fourth, sheep have been utilized for several years as an animal model of pulmonary arterial hypertension and thus, there is a great amount of historical data with which to compare the results. The agent chosen to induce pulmonary arterial hypertension was a PGH2 analog, U44069 (9,11-dideoxy,9α,11α-epoxymethanoprostaglandin F2α). The reasons for using U44069 are that it is a very potent pulmonary vasoconstrictor, its characteristics are very similar to endogenously formed thromboxane A2, and it can be titrated to induce the desired degree of pulmonary vasoconstriction. U44069 was mixed with sterile normal saline immediately prior to being used and was protected from light by wrapping the solution with aluminum foil. The concentration of U44069 was adjusted such that a minimal flow rate of 0.8 ml per min was being infused into the sheep. This was done because more concentrated U44069 would have to be infused at very low rates and often causes “pulses” of U44069 due to the infusion characteristics of roller pumps. The U44069 pulses cause vasoconstriction “spikes” and thus would create induce a non-steady-state.
# Six yearling sheep (3 males, 3 females; 21-37 kg) were fasted 18-24 hours and initially anesthetized with a short acting barbiturate (thiopental) to allow intubation of the sheep. Halothane gas anesthesia (1.5-2.5%) was then used for the surgical procedures. Via a left thoracotomy, a Transonic blood flow probe was placed around the main pulmonary artery, silastic catheters placed in the main pulmonary artery and left atrium. After approximately 7 days the sheep were reanesthetized and the left carotid artery cannulated, a Cordis Introducer Sheath inserted in the left jugular vein, and a tracheotomy made. The sheep were allowed to recover for another 3-5 days prior to experimentation. These sheep were used to allow measurement of pulmonary arterial pressure (PPA), left atrial pressure (PLA), central venous pressure (PCV), systemic arterial pressure (PSYS), heart rate (HR), and cardiac output (CO) after baseline measurements were made for a minimum of 30 minutes.
# In four sheep, the ability of U44069 to maintain a steady-state increase in PVR was determined. After a 30 minute baseline, U44069 was infused at a rate of 1 microgram per kg of body weight per minute for 180 minutes. […] In particular, FIG. 9 illustrates that intravenously infused U44069 causes PVR to reach a steady-state increase by 30 minutes and that the steady-state increase lasts for a minimum of 180 minutes. U44069 caused significant alterations in other variables (data not shown) over the 180 minute infusion period relative to their baseline values: PPA increased, HR decreased, CO decreased.
# sheep [3] = test: Intravenous and aerosolized UT-15 dose response during U44069 induced pulmonary hypertension (Example V); type: in vivo; details: U44069 infused intravenously at 1 ng per kg per min
# Excerpt: Sheep were used as the animal model of choice for these experiments for a number of reasons. First is the docile nature of sheep. They will stand quietly in metabolic cages without having to utilize tranquilizing drugs, which have the potential to complicate experimental results. Second, sheep are large enough to allow direct measurement of CO, PPA, PLA, PCV, and PSYS. Sheep are also large enough to allow direct aerosolization of substances into the lung via trachoestomy thereby preventing swallowing of drugs and thus eliminating a possible secondary route of administration of UT-15. Third, sheep can tolerate a great amount of instrumentation with little or no discomfort. Fourth, sheep have been utilized for several years as an animal model of pulmonary arterial hypertension and thus, there is a great amount of historical data with which to compare the results. […] The reasons for using U44069 are that it is a very potent pulmonary vasoconstrictor, its characteristics are very similar to endogenously formed thromboxane A2, and it can be titrated to induce the desired degree of pulmonary vasoconstriction. U44069 was mixed with sterile normal saline immediately prior to being used and was protected from light by wrapping the solution with aluminum foil. The concentration of U44069 was adjusted such that a minimal flow rate of 0.8 ml per min was being infused into the sheep. This was done because more concentrated U44069 would have to be infused at very low rates and often causes “pulses” of U44069 due to the infusion characteristics of roller pumps. The U44069 pulses cause vasoconstriction “spikes” and thus would create induce a non-steady-state. Six yearling sheep (3 males, 3 females; 21-37 kg) were fasted 18-24 hours and initially anesthetized with a short acting barbiturate (thiopental) to allow intubation of the sheep. Halothane gas anesthesia (1.5-2.5%) was then used for the surgical procedures. Via a left thoracotomy, a Transonic blood flow probe was placed around the main pulmonary artery, silastic catheters placed in the main pulmonary artery and left atrium. After approximately 7 days the sheep were reanesthetized and the left carotid artery cannulated, a Cordis Introducer Sheath inserted in the left jugular vein, and a tracheotomy made. The sheep were allowed to recover for another 3-5 days prior to experimentation. These sheep were used to allow measurement of pulmonary arterial pressure (PPA), left atrial pressure (PLA), central venous pressure (PCV), systemic arterial pressure (PSYS), heart rate (HR), and cardiac output (CO) after baseline measurements were made for a minimum of 30 minutes. Two separate experiments were conducted to determine the dose response effects of intravenously infused UT-15 and aerosolized UT-15 during U44069 induced pulmonary hypertension. After a 30 minute baseline was established, U44069 was infused intravenously at a rate of 1 ng per kg per min. For the intravenous administration of UT-15 and after allowing the sheep to achieve a steady-state for 30-60 minutes, a dose-response to intravenous UT-15 was similar to that set forth in Example IV. For the aerosolized administration of UT-15 and after allowing the sheep to achieve a steady-state for 30-60 minutes, a dose-response to intravenous UT-15 was similar to that set forth in Example IV. In each experimental protocol, UT-15 was administered to three sheep for 30 minutes and to the other three sheep for 60 minutes.
# [4] = U44069 iv 1 microgram per kg per minute for 180 minutes, four sheep
# [5] = U44069 iv 1 microgram per kg per minute, 180 minute infusion
smiles,measurement,setting,value
"CCCCC[C@H](O)CC[C@@H]1[C@H]2Cc3cccc(OCC(=O)OC)c3C[C@H]2C[C@H]1O [9-deoxy-2′,9α-methano-3-oxa-4,5,6-trinor-3,7-(1′,3′-interphenylene)-PGF1, methyl ester]",blood pressure still lower after 52 min,rat; after 52 min,14 mm
same,lowered blood pressure,rat,44 mmHg
CCCCC[C@H](O)CC[C@@H]1[C@H]2Cc3cccc(OCC(=O)[O-])c3C[C@H]2C[C@H]1O.[Na+] [Treprostinil sodium],plasma half life,[1],more than 4 hours
"CCCCC[C@H](O)/C=C/C1C2COC(C2)C1C/C=C\CCCC(=O)O (stereo partly drawn) [U44069, 9,11-dideoxy,9α,11α-epoxymethanoprostaglandin F2α]",duration of steady-state increase in PVR,sheep [2]; [4],≥ 180 min
same,time for PVR to reach a steady-state increase,sheep [2]; [4],≤ 30 min
same,cardiac output (CO) relative to baseline,sheep [2]; [5],decreased
same,heart rate (HR) relative to baseline,sheep [2]; [5],decreased
same,pulmonary arterial pressure (PPA) relative to baseline,sheep [2]; [5],increased
same,left atrial pressure (PLA) relative to baseline,"sheep [2]; U44069 iv infusion, any time point",did not significantly change
same,central venous pressure (PCV) relative to baseline,"sheep [2]; U44069 iv infusion, significant only at 30 and 60 minutes",increased
same,systemic arterial pressure (PSYS) relative to baseline,"sheep [2]; U44069 iv infusion, statistically different only at 120, 150 and 180 minutes",increased above baseline values
same,PPA relative to baseline,sheep [3],significantly increased
same,PVR,sheep [3],dramatic increase
same,cardiac output relative to baseline,sheep [3],decrease
same,left atrial pressure,sheep [3],did not alter
